According to patent US20090221642A1, “MUSCARINIC RECEPTOR AGONISTS, COMPOSITIONS, METHODS OF TREATMENT THEREOF, AND PROCESSES FOR PREPARATION THEREOF-176” (AstraZeneca AB, priority 2008, published 2009):

What was measured:
[1] = target: T1, hM3 (human Muscarinic receptor subtype 3) (Homo sapiens, UniProt P20309); experiment: Human M3 calcium mobilization FLIPR assay; format: cell-based; settings: hM3 expressed in CHO cells, intracellular Ca2+ release, read-out: hM3 EC50
T1 construct: expressed in transfected cells; host or cells: CHO cells (Chinese hamster ovary cells, ATCC)
Method: (§1) Human M1, rat M1, human M3 and human M5 Calcium Mobilization FLIPR™ Assay
(§2) The compound activity in the present invention (EC50 or IC50) is measured using a 384 plate-based imaging assay that monitors drug induced intracellular Ca^2+ release in whole cells. Activation of hM1 (human Muscarinic receptor subtype 1, gene bank access NM_000738), rM1 (rat Muscarinic receptor subtype 1, gene bank access NM_080773), hM3 (human Muscarinic receptor subtype 3, gene bank access NM_000740NM_000740) and hM5 (human Muscarinic receptor subtype 5, gene bank access NM_0121258), receptors expressed in CHO cells (Chinese hamster ovary cells, ATCC) is quantified in a Molecular Devices FLIPR II™ instrument as an increase in fluorescent signal. Inhibition of hM3 and hM5 by compounds is determined by the decrease in fluorescent signal in response to 2 nM acetylcholine activation.
(§3) Prior to experiment, the cell culture medium is removed from the plates by inversion. […] Plates are incubated at 37° C. for 60 minutes prior to start the experiment. The incubation is terminated by washing the cells four times in assay buffer, leaving a residual 25 μl buffer per well. Cell plates are then transferred to the FLIPR, ready for compound additions.
(§4) The day of experiment, acetylcholine and compounds are diluted in assay buffer in three-fold concentration range (10 points serial dilution) for addition by FLIPR instrument. For all calcium assays, a baseline reading is taken for 10 seconds followed by the addition of 12.5 μl of compounds, resulting in a total well volume of 37.5 μl. Data is collected every second for 60 pictures and then every 6 seconds for 20 pictures prior to the addition of agonist. For hM3 and hM5, before agonist addition, a second baseline reading is taken for 10 seconds followed by the addition of 12.5 μl of agonist or buffer, producing a final volume of 50 μl. After agonist stimulation, the FLIPR continues to collect data every second for 60 pictures and then every 6 seconds for 20 pictures. The fluorescence emission is read using filter 1 (emission 510-570 nm) by the FLIPR on board CCD camera.
(§5) Calcium mobilization output data are calculated as the maximal relative fluorescence unit (RFU) minus the minimal value for both compound and agonist reading frame (except for hM1 and rM1 using only the maximal RFU). Data are analyzed using sigmoidal fits of a non-linear curve-fitting program (XLfit version 4.2.2 Excel add-in version 4.2.2 build 18 math 1Q version 2.1.2 build 18). All pEC50 and plC50 values are reported as arithmetic means ±standard error of mean of ‘n’ independent experiments.

[2] = target: T2, hM5 (human Muscarinic receptor subtype 5) (Homo sapiens, UniProt P08912); experiment: Human M5 calcium mobilization FLIPR assay; format: cell-based; settings: hM5 expressed in CHO cells, intracellular Ca2+ release, read-out: hM5 EC50
T2 construct: expressed in transfected cells; host or cells: CHO cells (Chinese hamster ovary cells, ATCC)
T2 sequence (P08912 1-532): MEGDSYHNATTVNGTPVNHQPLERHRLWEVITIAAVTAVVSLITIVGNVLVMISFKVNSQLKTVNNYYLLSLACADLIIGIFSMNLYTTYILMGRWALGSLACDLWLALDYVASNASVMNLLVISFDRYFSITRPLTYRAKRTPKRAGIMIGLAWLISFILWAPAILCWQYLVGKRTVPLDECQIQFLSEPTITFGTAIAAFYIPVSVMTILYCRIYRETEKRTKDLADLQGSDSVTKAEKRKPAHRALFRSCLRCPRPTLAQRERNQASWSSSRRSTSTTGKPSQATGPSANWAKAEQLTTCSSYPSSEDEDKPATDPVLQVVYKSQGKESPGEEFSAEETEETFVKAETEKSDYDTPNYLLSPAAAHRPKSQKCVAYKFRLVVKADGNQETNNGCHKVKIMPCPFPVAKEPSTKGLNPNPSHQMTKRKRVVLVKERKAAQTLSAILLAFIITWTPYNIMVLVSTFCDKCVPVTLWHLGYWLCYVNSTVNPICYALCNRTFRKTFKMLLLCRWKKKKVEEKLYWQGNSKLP
Method: as §1, §2, §3, §4, §5

T1 sequence (P20309 whole entry): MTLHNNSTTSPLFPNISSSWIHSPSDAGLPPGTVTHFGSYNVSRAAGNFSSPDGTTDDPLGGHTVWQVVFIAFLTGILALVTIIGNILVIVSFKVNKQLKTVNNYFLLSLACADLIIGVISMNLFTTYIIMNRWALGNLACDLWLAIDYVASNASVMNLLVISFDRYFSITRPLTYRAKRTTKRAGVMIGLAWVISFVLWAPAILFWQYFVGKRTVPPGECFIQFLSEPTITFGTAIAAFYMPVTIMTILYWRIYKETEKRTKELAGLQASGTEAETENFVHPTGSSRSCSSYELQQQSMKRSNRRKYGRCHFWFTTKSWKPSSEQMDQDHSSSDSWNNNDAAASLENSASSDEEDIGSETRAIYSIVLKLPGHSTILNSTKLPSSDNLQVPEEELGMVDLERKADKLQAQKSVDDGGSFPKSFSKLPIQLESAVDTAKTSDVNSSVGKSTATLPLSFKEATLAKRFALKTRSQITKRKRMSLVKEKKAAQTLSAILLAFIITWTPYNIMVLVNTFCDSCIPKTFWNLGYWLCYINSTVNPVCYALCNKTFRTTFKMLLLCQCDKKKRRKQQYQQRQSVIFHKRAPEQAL

COC(=O)N1CCC(C)(N2CCC(n3c(=O)[nH]c4ccc(C)cc43)CC2)C1 (single isomer, unassigned) [Example 45, methyl 3-methyl-3-(4-(6-methyl-2-oxo-2,3-dihydro-1H-benzo[d]imidazol-1-yl)piperidin-1-yl)pyrrolidine-1-carboxylate]
EC50 [1]: > 40000 nM
EC50 [2]: 1080 nM

CCOC(=O)N1CCC(C)(N2CCC(n3c(=O)[nH]c4cc(F)c(C)cc43)CC2)C1 (single isomer, unassigned) [Example 55, ethyl 3-(4-(5-fluoro-6-methyl-2-oxo-2,3-dihydro-1H-benzo[d]imidazol-1-yl)piperidin-1-yl)-3-methylpyrrolidine-1-carboxylate]
EC50 [1]: > 40000 nM
EC50 [2]: 1820 nM

COC(=O)N1CCC(C)(N2CCC(n3c(=O)[nH]c4ccc(F)cc43)CC2)C1 (single isomer, unassigned) [Example 52, methyl 3-(4-(6-fluoro-2-oxo-2,3-dihydro-1H-benzo[d]imidazol-1-yl)piperidin-1-yl)-3-methylpyrrolidine-1-carboxylate]
EC50 [1]: > 40000 nM
EC50 [2]: > 9640 nM

CC1(N2CCC(n3c(=O)[nH]c4cc(F)c(F)cc43)CC2)CCN(C(=O)OCCF)C1 (single isomer, unassigned) [Example 61, 2-fluoroethyl 3-(4-(5,6-difluoro-2-oxo-2,3-dihydro-1H-benzo[d]imidazol-1-yl)piperidin-1-yl)-3-methylpyrrolidine-1-carboxylate]
EC50 [1]: > 40000 nM
EC50 [2]: > 2710 nM

CCOC(=O)N1CCC(C)(N2CCC(N3C(=O)Cc4cc(F)c(C)cc43)CC2)C1 (single isomer, unassigned) [Example 81, ethyl 3-(4-(5-fluoro-6-methyl-2-oxoindolin-1-yl)piperidin-1-yl)-3-methylpyrrolidine-1-carboxylate]
EC50 [1]: > 13300 nM
EC50 [2]: 1240 nM

CCNC(=O)N1CCC(C)(N2CCC(n3c(=O)[nH]c4ccccc43)CC2)C1 (centres unmarked) [Example 5, N-ethyl-3-methyl-3-(4-(2-oxo-2,3-dihydro-1H-benzo[d]imidazol-1-yl)piperidin-1-yl)pyrrolidine-1-carboxamide]
EC50 [1]: > 40000 nM
EC50 [2]: > 2960 nM

Cc1ccc2c(c1)[nH]c(=O)n2C1CCN(C2(C)CCN(C(=O)OC(C)C)C2)CC1 (single isomer, unassigned) [Example 15, isopropyl 3-methyl-3-(4-(5-methyl-2-oxo-2,3-dihydro-1H-benzo[d]imidazol-1-yl)piperidin-1-yl)pyrrolidine-1-carboxylate]
EC50 [1]: > 40000 nM

COC(=O)N1CCC(C)(N2CCC(N3C(=O)Cc4ccc(C)cc43)CC2)C1 (single isomer, unassigned) [Example 67, methyl 3-methyl-3-(4-(6-methyl-2-oxoindolin-1-yl)piperidin-1-yl)pyrrolidine-1-carboxylate]
EC50 [1]: > 33500 nM
EC50 [2]: > 6710 nM

C#CCOC(=O)N1CCC(C)(N2CCC(n3c(=O)[nH]c4ccc(C)cc43)CC2)C1 (single isomer, unassigned) [Example 43, prop-2-ynyl 3-methyl-3-(4-(6-methyl-2-oxo-2,3-dihydro-1H-benzo[d]imidazol-1-yl)piperidin-1-yl)pyrrolidine-1-carboxylate]
EC50 [1]: 553 nM
EC50 [2]: 205 nM

CC1(N2CCC(n3c(=O)[nH]c4ccccc43)CC2)CCN(C(=O)OCCF)C1 (racemic) [Example 4, 2-fluoroethyl 3-methyl-3-(4-(2-oxo-2,3-dihydro-1H-benzo[d]imidazol-1-yl)piperidin-1-yl)pyrrolidine-1-carboxylate]
EC50 [1]: > 40000 nM
EC50 [2]: > 9600 nM

COC(=O)N1CCC(C)(N2CCC(n3c(=O)[nH]c4cc(F)c(F)cc43)CC2)C1 (single isomer, unassigned) [Example 60, methyl 3-(4-(5,6-difluoro-2-oxo-2,3-dihydro-1H-benzo[d]imidazol-1-yl)piperidin-1-yl)-3-methylpyrrolidine-1-carboxylate]
EC50 [1]: > 40000 nM
EC50 [2]: > 7270 nM

CCOC(=O)N1CCC(C)(N2CCC(n3c(=O)[nH]c4cc(F)c(F)cc43)CC2)C1 (single isomer, unassigned) [Example 58, ethyl 3-(4-(5,6-difluoro-2-oxo-2,3-dihydro-1H-benzo[d]imidazol-1-yl)piperidin-1-yl)-3-methylpyrrolidine-1-carboxylate]
EC50 [1]: > 40000 nM
EC50 [2]: 2210 nM

CC1(N2CCC(n3c(=O)[nH]c4ccc(F)cc43)CC2)CCN(C(=O)OCCF)C1 (single isomer, unassigned) [Example 53, 2-fluoroethyl 3-(4-(6-fluoro-2-oxo-2,3-dihydro-1H-benzo[d]imidazol-1-yl)piperidin-1-yl)-3-methylpyrrolidine-1-carboxylate]
EC50 [1]: > 40000 nM
EC50 [2]: > 6160 nM

CCOC(=O)N1CCC(C)(N2CCC(n3c(=O)[nH]c4cc(F)c(F)cc43)CC2)C1 (single isomer, unassigned) [Example 57, ethyl 3-(4-(5,6-difluoro-2-oxo-2,3-dihydro-1H-benzo[d]imidazol-1-yl)piperidin-1-yl)-3-methylpyrrolidine-1-carboxylate]
EC50 [1]: 3550 nM
EC50 [2]: 356 nM

CCOC(=O)N1CCC(C)(N2CCC(n3c(=O)[nH]c4cc(F)c(C)cc43)CC2)C1 (single isomer, unassigned) [Example 56, ethyl 3-(4-(5-fluoro-6-methyl-2-oxo-2,3-dihydro-1H-benzo[d]imidazol-1-yl)piperidin-1-yl)-3-methylpyrrolidine-1-carboxylate]
EC50 [1]: > 3540 nM
EC50 [2]: 1280 nM

Cc1ccc2[nH]c(=O)n(C3CCN(C4(C)CCN(C(=O)OCCF)C4)CC3)c2c1 (single isomer, unassigned) [Example 28, 2-fluoroethyl 3-methyl-3-(4-(6-methyl-2-oxo-2,3-dihydro-1H-benzo[d]imidazol-1-yl)piperidin-1-yl)pyrrolidine-1-carboxylate]
EC50 [1]: > 24300 nM
EC50 [2]: 2650 nM

CC1(N2CCC(n3c(=O)[nH]c4cc(F)ccc43)CC2)CCN(C(=O)OCCF)C1 (centres unmarked) [Example 10, 2-fluoroethyl 3-(4-(5-fluoro-2-oxo-2,3-dihydro-1H-benzo[d]imidazol-1-yl)piperidin-1-yl)-3-methylpyrrolidine-1-carboxylate]
EC50 [1]: > 40000 nM
EC50 [2]: 537 nM

CCOC(=O)N1CCC(C)(N2CCC(n3c(=O)[nH]c4ccc(F)cc43)CC2)C1 (single isomer, unassigned) [Example 49, ethyl 3-(4-(6-fluoro-2-oxo-2,3-dihydro-1H-benzo[d]imidazol-1-yl)piperidin-1-yl)-3-methylpyrrolidine-1-carboxylate]
EC50 [1]: > 40000 nM
EC50 [2]: > 6210 nM

CC#CCOC(=O)N1CCC(C)(N2CCC(n3c(=O)[nH]c4ccc(C)cc43)CC2)C1 (single isomer, unassigned) [Example 20, but-2-ynyl 3-methyl-3-(4-(6-methyl-2-oxo-2,3-dihydro-1H-benzo[d]imidazol-1-yl)piperidin-1-yl)pyrrolidine-1-carboxylate]
EC50 [1]: 535 nM
EC50 [2]: 720 nM

C#CCOC(=O)N1CCC(C)(N2CCC(n3c(=O)[nH]c4cc(F)ccc43)CC2)C1 (centres unmarked) [Example 11, prop-2-ynyl 3-(4-(5-fluoro-2-oxo-2,3-dihydro-1H-benzo[d]imidazol-1-yl)piperidin-1-yl)-3-methylpyrrolidine-1-carboxylate]
EC50 [1]: 1130 nM
